The values that follow come from ChEMBL document CHEMBL3046590, “Design and synthesis of some thiazolotriazolyl esters as anti-inflammatory and analgesic agents” (Med Chem Res, 2012).

Each structure is given as a SMILES string.

By inhibition in vivo is commonly meant the drop in the measured response relative to a control, in per cent.

Data set [1] has as its system Mus musculus. The experiment in a line: Anti-inflammatory activity in Mus musculus BALB/c (mouse) assessed as inhibition of carrageenan-induced paw swelling at 100 mg/kg, po administered 1 hr followed by carrageenan challenge measured at 180 min relative to control. Format: functional.
Data set [2] deals with Mus musculus. The experiment in a line: Anti-inflammatory activity in Mus musculus BALB/c (mouse) assessed as carrageenan-induced paw swelling at 50 mg/kg, po administered 1 hr followed by carrageenan challenge measured at 180 min (reference value: 52 +/- 4.6 x 10^-2 mm). Format: functional.
For data set [3], the system named is Mus musculus. The experiment in a line: Anti-inflammatory activity in Mus musculus BALB/c (mouse) assessed as carrageenan-induced paw swelling at 200 mg/kg, po administered 1 hr followed by carrageenan challenge measured at 360 min (reference value: 105 +/- 4.5 x 10^-2 mm). Type of data set: functional. A general note: Carrageenan injected into the paw causes an acute inflammation.

The subject of data set [4] is Mus musculus. Put plainly: Antioxidant activity in Mus musculus BALB/c (mouse) stomach assessed as TBARS level at 100 mg/kg, po (reference value: 80.4 +/- 5.4 nmol/g ). Type of data set: functional.
In data set [5] the test system is Mus musculus. The experiment in a line: Anti-inflammatory activity in Mus musculus BALB/c (mouse) assessed as carrageenan-induced paw swelling at 50 mg/kg, po administered 1 hr followed by carrageenan challenge measured at 270 min (reference value: 78 +/- 8.4 x 10^-2 mm). Type of data set: functional.
The test system of data set [6] is Mus musculus. The experiment in a line: Anti-inflammatory activity in Mus musculus BALB/c (mouse) assessed as carrageenan-induced paw swelling at 100 mg/kg, po administered 1 hr followed by carrageenan challenge measured at 360 min (reference value: 105 +/- 4.5 x 10^-2 mm). Type of data set: functional.
For data set [7], the system named is Mus musculus. The experiment in a line: Toxicity in Mus musculus BALB/c (mouse) assessed as mortality at 50 to 200 mg/kg, po after 72 hr. Format: organism-based. Further details: dose 50-200 mg/kg, route oral. The settings on record: in vivo.
In data set [8] the test system is Mus musculus. The experiment in a line: Anti-inflammatory activity in Mus musculus BALB/c (mouse) assessed as inhibition of carrageenan-induced paw swelling at 100 mg/kg, po administered 1 hr followed by carrageenan challenge measured at 270 min relative to control. Format: functional.
The subject of data set [9] is Mus musculus. Put plainly: Anti-inflammatory activity in Mus musculus BALB/c (mouse) assessed as carrageenan-induced paw swelling at 100 mg/kg, po administered 1 hr followed by carrageenan challenge measured at 90 min (reference value: 39 +/- 5.6 x 10^-2 mm). Type of data set: functional.
Data set [10] has as its system Mus musculus. Put plainly: Anti-inflammatory activity in Mus musculus BALB/c (mouse) assessed as carrageenan-induced paw swelling at 100 mg/kg, po administered 1 hr followed by carrageenan challenge measured at 270 min (reference value: 78 +/- 8.4 x 10^-2 mm). Format: functional.
The subject of data set [11] is Mus musculus. Put plainly: Anti-inflammatory activity in Mus musculus BALB/c (mouse) assessed as carrageenan-induced paw swelling at 50 mg/kg, po administered 1 hr followed by carrageenan challenge measured at 90 min (reference value: 39 +/- 5.6 x 10^-2 mm). Format: functional.
The subject of data set [12] is Mus musculus. The experiment in a line: Anti-inflammatory activity in Mus musculus BALB/c (mouse) assessed as carrageenan-induced paw swelling at 200 mg/kg, po administered 1 hr followed by carrageenan challenge measured at 180 min (reference value: 52 +/- 4.6 x 10^-2 mm). Format: functional.
Data set [13] deals with Mus musculus. Put plainly: Anti-inflammatory activity in Mus musculus BALB/c (mouse) assessed as carrageenan-induced paw swelling at 200 mg/kg, po administered 1 hr followed by carrageenan challenge measured at 90 min (reference value: 39 +/- 5.6 x 10^-2 mm). Type of data set: functional.
The subject of data set [14] is Mus musculus. Put plainly: Toxicity in Mus musculus BALB/c (mouse) assessed as behavioral changes at 50 to 200 mg/kg, po after 72 hr. Also noted: dose 50-200 mg/kg, route oral. Particulars: in vivo. Type of data set: organism-based.
For data set [15], the system named is Mus musculus. The experiment in a line: Anti-inflammatory activity in Mus musculus BALB/c (mouse) assessed as carrageenan-induced paw swelling at 200 mg/kg, po administered 1 hr followed by carrageenan challenge measured at 270 min (reference value: 78 +/- 8.4 x 10^-2 mm). Format: functional.
Data set [16] relates to Mus musculus. Put plainly: Anti-inflammatory activity in Mus musculus BALB/c (mouse) assessed as carrageenan-induced paw swelling at 100 mg/kg, po administered 1 hr followed by carrageenan challenge measured at 180 min (reference value: 52 +/- 4.6 x 10^-2 mm). Format: functional.
Data set [17] concerns Mus musculus. The experiment in a line: Anti-inflammatory activity in Mus musculus BALB/c (mouse) assessed as inhibition of carrageenan-induced paw swelling at 100 mg/kg, po administered 1 hr followed by carrageenan challenge measured at 360 min relative to control. Type of data set: functional.
Data set [18] has as its system Mus musculus. The experiment in a line: Anti-inflammatory activity in Mus musculus BALB/c (mouse) assessed as carrageenan-induced paw swelling at 50 mg/kg, po administered 1 hr followed by carrageenan challenge measured at 360 min (reference value: 105 +/- 4.5 x 10^-2 mm). Type of data set: functional.
Data set [19] has as its system Mus musculus. The experiment in a line: Analgesic activity in Mus musculus BALB/c (mouse) assessed as inhibition of acetic acid-induced writhing at 100 mg/kg, po administered 1 hr followed by acetic acid challenge measured for 10 min. Format: functional. In general terms: An intraperitoneal irritant provokes the stretching counted in writhing tests.
In data set [20] the test system is Mus musculus. Put plainly: Anti-inflammatory activity in Mus musculus BALB/c (mouse) assessed as inhibition of carrageenan-induced paw swelling at 50 mg/kg, po administered 1 hr followed by carrageenan challenge measured at 270 min relative to control. Type of data set: functional.
For data set [21], the system named is Mus musculus. The experiment in a line: Anti-inflammatory activity in Mus musculus BALB/c (mouse) assessed as inhibition of carrageenan-induced paw swelling at 50 mg/kg, po administered 1 hr followed by carrageenan challenge measured at 360 min relative to control. Type of data set: functional.

Consider `CCOC(=O)Cc1csc2nc(-c3ccccc3)nn12`, for which the inhibition in vivo at 100 mg/kg in data set [1] worked out at 23.1%; in data set [8], 31.1%; in [17], 16.7%. Further, the Activity in [2] is listed as 53.5 ×10⁻² mm; in [3], 105.4 ×10⁻² mm; in data set [4], 174.1 nmol/g; in [5], 79.7 ×10⁻² mm; in data set [6], 87.5 ×10⁻² mm; in [7] it was “Non-toxic”. In addition, the Activity is given as 45 ×10⁻² mm in data set [9]; 53.7 ×10⁻² mm in data set [10]; 76.3 ×10⁻² mm in data set [11]; 48.1 ×10⁻² mm in data set [12]; 35.2 ×10⁻² mm in [13]; “Non-toxic” in data set [14]. Besides, the figures for the Activity in data set [15], in [16] and in [18] were 75 ×10⁻² mm, 40 ×10⁻² mm and 102 ×10⁻² mm, respectively.
As for `CCOC(=O)Cc1csc2nc(Cc3cc(OC)c(OC)c(OC)c3)nn12`, the inhibition in vivo at 100 mg/kg in [1] turned out to be 37.9%; in data set [19] it was 62.8%. Moreover, the Activity is given as 46 ×10⁻² mm in data set [2]; 93.4 ×10⁻² mm in data set [3]; 157.1 nmol/g in [4]; 61.3 ×10⁻² mm in data set [5]; 129.5 ×10⁻² mm in [6]; “Non-toxic” in [7]. The Activity in data set [9] is on record as 40.8 ×10⁻² mm; in data set [10], 105 ×10⁻² mm; in [11] it was 55.1 ×10⁻² mm; in data set [12] it was 42.5 ×10⁻² mm; in [13], 38 ×10⁻² mm; in [14] it was “Non-toxic”. In addition, the Activity in data set [15] amounted to 70.3 ×10⁻² mm; in [16], 32.3 ×10⁻² mm; in data set [18], 87.2 ×10⁻² mm. Moreover, the inhibition in vivo at 50 mg/kg in data set [20] is 21.4%; in data set [21], 16.9%.
On to `CCOC(=O)c1sc2nc(-c3ccc(Cl)cc3)nn2c1C`, for which the inhibition in vivo at 100 mg/kg in data set [1] was 17.7%; in [19], 89.7%; in [17], 28.2%. The Activity is recorded as 70 ×10⁻² mm in [2]; 98.3 ×10⁻² mm in [3]; 116.9 nmol/g in data set [4]; 91.1 ×10⁻² mm in data set [5]; 75.4 ×10⁻² mm in data set [6]; “Non-toxic” in data set [7]. Moreover, the Activity is listed as 45.5 ×10⁻² mm in data set [9]; 69.9 ×10⁻² mm in [10]; 66.1 ×10⁻² mm in data set [11]; 45.7 ×10⁻² mm in data set [12]; 35.7 ×10⁻² mm in data set [13]; “Non-toxic” in [14]. Also, the Activity in [15] is on record as 69.6 ×10⁻² mm; in [16] it was 42.8 ×10⁻² mm; in data set [18] it was 117.8 ×10⁻² mm.
With `COc1cc(CC2=NC(=S)N=N2)cc(OC)c1OC`, the inhibition in vivo at 100 mg/kg is 18.3% in data set [1], 23.1% in [8] and 38.1% in [17]. Also, the Activity in data set [2] was 46 ×10⁻² mm; in [3], 104.5 ×10⁻² mm; in data set [4] it was 115.1 nmol/g; in [5], 57.8 ×10⁻² mm; in [6], 65 ×10⁻² mm; in data set [7], “Non-toxic”. For the same molecule, the Activity is reported as 36.2 ×10⁻² mm in data set [9]; 60 ×10⁻² mm in data set [10]; 35.6 ×10⁻² mm in data set [11]; 49.8 ×10⁻² mm in data set [12]; 45.6 ×10⁻² mm in data set [13]; “Non-toxic” in data set [14]. For the same molecule, the Activity in data set [15] is listed as 77 ×10⁻² mm; in data set [16] it was 42.5 ×10⁻² mm; in data set [18], 77.3 ×10⁻² mm. Also, the values for the inhibition in vivo at 50 mg/kg in data set [20] and in [21] were 25.9% and 26.4%, respectively.
On to `CCOC(=O)Cc1csc2nc(-c3ccc(OC)cc3)nn12`, for which the inhibition in vivo at 100 mg/kg in data set [1] was 24.4%; in [19], 24.3%. Further, the Activity in data set [2] was 65.4 ×10⁻² mm; in data set [3], 110.8 ×10⁻² mm; in data set [4] it was 128.7 nmol/g; in data set [5], 76.2 ×10⁻² mm; in data set [6] it was 122.5 ×10⁻² mm; in data set [7], “Non-toxic”. Further, the Activity in data set [9] was 47.9 ×10⁻² mm; in data set [10], 90 ×10⁻² mm; in data set [11], 71.2 ×10⁻² mm; in data set [12], 52.2 ×10⁻² mm; in data set [13], 43.7 ×10⁻² mm; in data set [14], “Non-toxic”. The Activity is 79 ×10⁻² mm in data set [15], 38.3 ×10⁻² mm in data set [16] and 96.1 ×10⁻² mm in data set [18].
In the case of `Sc1n[nH]c(-c2ccccc2)n1`, the inhibition in vivo at 100 mg/kg in [1] was 27.1%; in data set [19], 35.9%. For the same molecule, the Activity is reported as 34.9 ×10⁻² mm in data set [2]; 105.4 ×10⁻² mm in data set [3]; 88.4 nmol/g in data set [4]; 61.3 ×10⁻² mm in [5]; 126 ×10⁻² mm in [6]; “Non-toxic” in [7]. Besides, the Activity was 44.3 ×10⁻² mm in data set [9]; 111 ×10⁻² mm in [10]; 39.8 ×10⁻² mm in data set [11]; 51.7 ×10⁻² mm in [12]; 45.8 ×10⁻² mm in [13]; “Non-toxic” in [14]. Moreover, the Activity in data set [15] was 74.3 ×10⁻² mm; in data set [16] it was 36.9 ×10⁻² mm; in [18] it was 89.1 ×10⁻² mm. Besides, the inhibition in vivo at 50 mg/kg was 21.4% in data set [20] and 15.1% in data set [21].
With `CC(=O)Oc1ccccc1C(=O)O` [ASPIRIN], the Activity was 121 nmol/g in [4], “Non-toxic” in data set [7] and “Non-toxic” in data set [14]. Besides, the inhibition in vivo at 100 mg/kg in data set [19] amounted to 50%.
